Source: patent US20260034138A1, “NOVEL PYRIMIDINYL AND TRIAZINYL SULFONAMIDE DERIVATIVES” (Hoffmann-La Roche Inc., priority 2022, published 2026)

What was measured:
[1] = biological target: human GPR17 short isoform (Homo sapiens, UniProt Q13304); assay: GPR17 cAMP assay (hGPR17 cAMP); assay type: cell-based; conditions: CHO-K1 cells stably expressing human GPR17 short isoform; antagonist mode vs EC80 of MDL29,951; forskolin 15 μM; TR-FRET cAMP
Method: GPR17 cAMP Assay Protocol:
CHO-K1 cells stably expressing vector containing untagged human GPR17 short isoform (Roche) were cultured at 37° C./5% CO2 in DMEM (Dulbecco's Modified Eagle Medium): F-12 (1:1) supplemented with 10% foetal bovine serum and 400 μg/ml Geneticin.
Changes in intracellular cyclic adenosine monophosphate (cAMP) levels were quantified using the Nano-TRF Detection Assay kit (Roche Diagnostics, Cat. No. 05214386001). This assay allows for direct cAMP quantification in a homogeneous solution. cAMP is detected based on time-resolved fluorescence energy transfer (TR-FRET) and competitive binding of ruthenylated cAMP and endogenous cAMP to an anti-cAMP monoclonal antibody labeled with AlexaFluor-700. The Ruthenium complex serves as the FRET donor and transfers energy to AlexaFluor-700. The FRET signal is inversely proportional to the CAMP concentration.
CHO-GPR17S cells were detached with Accutase and resuspended in assay buffer consisting of Hank's Balanced Salt Solution (HBSS), 10 mM HEPES (4-(2-hydroxyethyl) piperazine-1-ethanesulfonic acid solution) and 0.1% bovine serum albumin (pH 7.4). The cells were seeded in black 384-well plates (Corning) at a density of 10'000 cells/20 μl assay buffer until the addition of compounds.
Test antagonist compounds were serially diluted in dimethyl sulfoxide (DMSO) and spotted in 384-well plates. The compounds were then diluted in HBSS buffer supplemented with an EC80 concentration of MDL29,951 (3-(2-Carboxy-4,6-dichloroindol-3-yl) propionic acid) (GPR17 agonist) plus 3-Isobutyl-1-methylxanthine (IBMX) (0.5 mM final concentration) and added to the cells at room temperature. Forskolin (15 μM final concentration) was added 5 minutes after the test compounds and the cells were incubated at room temperature for 30 minutes. The assay was stopped by adding cAMP detection mix (containing detergents for cell lysis) for 90 minutes at room temperature.
Cellular cAMP was measured using a Paradigm reader (Molecular Devices). The raw data was used to calculate the FRET signal based on the assay's P-factor as per cAMP kit instructions. The data was normalized to the maximal activity of a reference antagonist and dose response curves were fitted to the percent activity of the test compounds using a sigmoidal dose response model (Genedata Screener).
Results in the hGPR17 cAMP assay are provided for compounds of formula I in Table 1

[2] = Microsome Clearance Assay; assay type: in vitro ADME; conditions: human microsomes 0.5 mg/mL plus NADPH, 37° C., test compound 1 microM final
Method: Microsome Clearance Assay Protocol:
Incubations at a test compound of 1 mM in microsomes (0.5 mg/mL) plus cofactor NADPH are performed in 96 well plates at 37° C. on a TECAN (Tecan Group Ltd, Switzerland) automated liquid handling system. The final concentration of the test compound in the incubation is 1 microM. After a 10 minutes preincubation step of the test compound with the microsomes, the enzymatic reaction is started by the addition of cofactors. At 1, 3, 6, 9, 15, 25, 35 and 45 minutes, aliquots of the incubations are removed and quenched with 1:3 (v/v) acetonitrile containing internal standards. Samples are then cooled and centrifuged before analysis of the supernatant by LC-MS/MS.
Reference compounds were tested against exemplified compounds for their Microsome Clearance to evaluate metabolite stability.

Sequence of human GPR17 short isoform (Q13304 29-367): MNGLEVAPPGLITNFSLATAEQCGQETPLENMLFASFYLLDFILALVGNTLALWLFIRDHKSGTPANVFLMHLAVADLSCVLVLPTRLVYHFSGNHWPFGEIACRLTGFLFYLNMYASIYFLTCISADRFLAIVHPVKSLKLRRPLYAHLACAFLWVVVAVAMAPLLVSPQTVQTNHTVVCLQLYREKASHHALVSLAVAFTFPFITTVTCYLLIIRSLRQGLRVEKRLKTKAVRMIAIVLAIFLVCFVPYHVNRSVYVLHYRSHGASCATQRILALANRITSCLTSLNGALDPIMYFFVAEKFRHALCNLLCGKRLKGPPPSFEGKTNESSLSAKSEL

| Compound | IC50 [1] [nM] | microsomal CLint at 1 microM [2] [µL/min/mg] |
| --- | --- | --- |
| COc1nc(OCC(F)F)ncc1NS(=O)(=O)c1c[nH]c2nc(Cl)ccc12 [Example 4, 6-chloro-N-[2-(2,2-difluoroethoxy)-4-methoxy-pyrimidin-5-yl]-1H-pyrrolo[2,3-b]pyridine-3-sulfonamide] | 460 | 10 |
| O=S(=O)(Nc1cnc(Cl)nc1Cl)c1c[nH]c2cc(Cl)ccc12 [Example 6, 6-chloro-N-(2,4-dichloropyrimidin-5-yl)-1H-indole-3-sulfonamide] | 1190 |  |
| COc1nc(OCC(F)F)ncc1NS(=O)(=O)c1c[nH]c2nc(Br)ccc12 [Example 10, 6-bromo-N-[2-(2,2-difluoroethoxy)-4-methoxy-pyrimidin-5-yl]-1H-pyrrolo[2,3-b]pyridine-3-sulfonamide] | 167 |  |
| COc1nc(OCC(F)F)ncc1NS(=O)(=O)c1c[nH]c2cc(C(F)(F)F)ccc12 [Example 11, N-[2-(2,2-difluoroethoxy)-4-methoxy-pyrimidin-5-yl]-6-(trifluoromethyl)-1H-indole-3-sulfonamide] | 347 |  |
| COc1nc(NS(=O)(=O)c2c[nH]c3cc(Cl)ccc23)nnc1CC(F)F [Example 12, 6-chloro-N-[6-(2,2-difluoroethyl)-5-methoxy-1,2,4-triazin-3-yl]-1H-indole-3-sulfonamide] | 908 | 10 |
| COc1nc(NS(=O)(=O)c2c[nH]c3cc(Cl)ccc23)nnc1C [Example 13, 6-chloro-N-(5-methoxy-6-methyl-1,2,4-triazin-3-yl)-1H-indole-3-sulfonamide] | 5220 |  |
| COc1nc(OCC(F)F)c(F)cc1NS(=O)(=O)c1c[nH]c2nc(Cl)ccc12 [RE-A, 6-chloro-N-[6-(2,2-difluoroethoxy)-5-fluoro-2-methoxy-3-pyridyl]-1H-pyrrolo[2,3-b]pyridine-3-sulfonamide, reference compound] |  | 41 |

Results, then the compound that gave them:

| IC50 [1] [nM] | microsomal CLint at 1 microM [2] [µL/min/mg] | Compound |
| --- | --- | --- |
| 772 |  | CCCc1ncc(NS(=O)(=O)c2c[nH]c3cc(Cl)ccc23)c(OC)n1 [Example 1, 6-chloro-N-(4-methoxy-2-propyl-pyrimidin-5-yl)-1H-indole-3-sulfonamide] |
| 637 |  | CCc1ncc(NS(=O)(=O)c2c[nH]c3cc(Cl)ccc23)c(OC)n1 [Example 2, 6-chloro-N-(2-ethyl-4-methoxy-pyrimidin-5-yl)-1H-indole-3-sulfonamide] |
| 159 |  | COc1nc(OC(F)F)ncc1NS(=O)(=O)c1c[nH]c2cc(Cl)ccc12 [Example 3, 6-chloro-N-[2-(difluoromethoxy)-4-methoxy-pyrimidin-5-yl]-1H-indole-3-sulfonamide] |
| 174 |  | O=S(=O)(Nc1cnc(OCC(F)F)nc1OC(F)F)c1c[nH]c2cc(Cl)ccc12 [Example 5, 6-chloro-N-[2-(2,2-difluoroethoxy)-4-(difluoromethoxy)pyrimidin-5-yl]-1H-indole-3-sulfonamide] |
| 727 |  | COc1nc(OCCF)ncc1NS(=O)(=O)c1c[nH]c2cc(Cl)ccc12 [Example 7, 6-chloro-N-(2-(2-fluoroethoxy)-4-methoxypyrimidin-5-yl)-1H-indole-3-sulfonamide] |
| 121 |  | COc1nc(OCC(F)F)ncc1NS(=O)(=O)c1c[nH]c2cc(Cl)ccc12 [Example 8, 6-chloro-N-(2-(2,2-difluoroethoxy)-4-methoxypyrimidin-5-yl)-1H-indole-3-sulfonamide] |
| 53 |  | COc1nc(OCC(F)F)ncc1NS(=O)(=O)c1c[nH]c2cc(Br)ccc12 [Example 9, 6-bromo-N-[2-(2,2-difluoroethoxy)-4-methoxy-pyrimidin-5-yl]-1H-indole-3-sulfonamide] |
